Experiments:
Assay in all cases: microbe, parasite or virus in culture
[1] = system: A/California/07/2009 (H1N1)
[2] = system: A/Denmark/524/2009 (H1N1)
A/Texas/04/2009 (H1N1) = system: A/Texas/04/2009 (H1N1)
[3] = system: A/Washington/29/2009 (H1N1)
[4] = system: B/Wisconsin/1/2010 (Yamagata); conditions: Influenza B virus
[5] = system: B/Brisbane/60/2008 (Victoria); conditions: Influenza B virus
[6] = system: A/Switzerland/9715293/2013 (H3N2)
[7] = system: A/Denmark/528/2009 (H1N1)
[8] = system: B/Memphis/20/1996 (Yamagata); conditions: Influenza B virus
[9] = system: B/Utah/09/2014 (Yamagata); conditions: Influenza B virus
[10] = system: B/Phuket/3073/2013 (Yamagata); conditions: Influenza B virus

Row | SMILES | EC50 [1] [nM] | EC50 [2] [nM] | EC50 (A/Texas/04/2009 (H1N1)) [nM] | EC50 [3] [nM] | EC50 [4] [nM] | EC50 [5] [nM] | EC50 [6] [nM] | EC50 [7] [nM] | EC50 [8] [nM] | EC50 [9] [nM] | EC50 [10] [nM]
1 | O=c1[nH]c2ccccc2n1C1CCN(C(CCc2ccccc2)c2nnnn2-c2ccc3c(c2)OCCO3)CC1 (centres unmarked) [Compound 5, 1‐(1‐{1‐[1‐(2,3‐dihydro‐1,4‐benzodioxin‐6‐yl)‐1,2,3,4‐tetrazol‐5‐yl]‐3‐phenylpropyl}piperidin‐4‐ yl)‐3 H‐1,3‐benzodiazol‐2‐one] | 4500 ± 700 | 1800 ± 400 | 3500 ± 1100 | 1600 ± 500 | 900 ± 200 | 1000 ± 300 | – | – | – | – | –
2 | C[C@@H](c1ccccc1)n1nnnc1[C@H](c1ccsc1)N1CCC(n2c(=O)[nH]c3ccccc32)CC1 [Compound 12a, 1‐{1‐[(S)‐{1‐[(1 S)‐1‐phenylethyl]‐1 H‐1,2,3,4‐tetrazol‐5‐yl}(thiophen‐3‐yl)methyl]piperidin‐4‐yl}‐2,3‐dihydro‐1 H‐1,3‐benzodiazol‐2‐one] | 1300 ± 400 | 800 ± 200 | 1100 ± 400 | 900 ± 300 | 800 ± 300 | 600 ± 300 | 1400 ± 600 | 900 ± 300 | 2700 ± 200 | 1500 ± 300 | 1200 ± 200
